Legend:
winter barley (HORVW) [1] = assay: Test 20 growth chamber, postemergence; type: in vivo, Hordeum vulgare; conditions: 25 DAA; 2,4-D or MCPA alone 250 g a.i./ha
Experimental: (§1) A test was conducted to evaluate the effects on winter barley (HORVW, Hordeum vulgare L.) and winter wheat (TRZAW, Triticum aestivum L.) of mixtures of Compound 2 with the commercial herbicides (2,4-dichlorophenoxy)acetic acid (2,4-D) and (4-chloro-2-methylphenoxy)acetic acid (MCPA), auxin mimics. […] Plants were treated postemergence at the 2-leaf growth stage, and each treatment was replicated a total of four times (three times in the loam/sand blend and one time in RediEarth). […] Plants were watered as needed. […] Results are the means of the four replicates.

winter wheat (TRZAW) [2] = assay: Test 20 growth chamber, postemergence; type: in vivo, Triticum aestivum; conditions: 25 DAA; 2,4-D or MCPA alone 250 g a.i./ha
Experimental: as §1

winter barley (HORVW) [3] = assay: Test 22 growth chamber, postemergence; type: in vivo, Hordeum vulgare; conditions: 25 DAA; 2,4-D or MCPA alone 250 g a.i./ha
Experimental: (§2) A test was conducted to evaluate the effects on winter barley (HORVW, Hordeum vulgare L.), winter wheat (TRZAW, Triticum aestivum L.), and several weed species of mixtures of Compound 2 with the commercial herbicides (2,4-dichlorophenoxy)acetic acid (2,4-D) and (4-chloro-2-methylphenoxy)acetic acid (MCPA), auxin mimics. […] Plants were treated postemergence at the 2-4 leaf growth stage, except KCHSC, SASKR and STEME which were in the 4-8 leaf growth stage. Each treatment was replicated one time. […] Plants were watered as needed. […] Results are from single replicates.

winter wheat (TRZAW) [4] = assay: Test 22 growth chamber, postemergence; type: in vivo, Triticum aestivum; conditions: 25 DAA; 2,4-D or MCPA alone 250 g a.i./ha
Experimental: as §2

redroot pigweed (AMARE) [5] = assay: Test 22 growth chamber, postemergence; type: in vivo, Amaranthus retroflexus; conditions: 25 DAA; 2,4-D or MCPA alone 250 g a.i./ha
Experimental: as §2

[6] = test system: common lambsquarters (CHEAL); assay: Test 22 growth chamber, postemergence; type: in vivo, Chenopodium album; conditions: 25 DAA; 2,4-D or MCPA alone 250 g a.i./ha
Experimental: as §2

galium (GALAP) [7] = assay: Test 22 growth chamber, postemergence; type: in vivo, Galium aparine; conditions: 25 DAA; 2,4-D or MCPA alone 250 g a.i./ha
Experimental: as §2

kochia (KCHSC) [8] = assay: Test 22 growth chamber, postemergence; type: in vivo, Kochia scoparia; conditions: 25 DAA; 2,4-D or MCPA alone 250 g a.i./ha
Experimental: as §2

wild buckwheat (POLCO) [9] = assay: Test 22 growth chamber, postemergence; type: in vivo, Polygonum convolvulus; conditions: 25 DAA; 2,4-D or MCPA alone 250 g a.i./ha
Experimental: as §2

Russian thistle (SASKR) [10] = assay: Test 22 growth chamber, postemergence; type: in vivo, Salsola kali; conditions: 25 DAA; 2,4-D or MCPA alone 250 g a.i./ha
Experimental: as §2

wild mustard (SINAR) [11] = assay: Test 22 growth chamber, postemergence; type: in vivo, Sinapis arvensis; conditions: 25 DAA; 2,4-D or MCPA alone 250 g a.i./ha
Experimental: as §2

common chickweed (STEME) [12] = assay: Test 22 growth chamber, postemergence; type: in vivo, Stellaria media; conditions: 25 DAA; 2,4-D or MCPA alone 250 g a.i./ha
Experimental: as §2

winter barley (HORVW) [13] = assay: Test 23 growth chamber, postemergence; type: in vivo, Hordeum vulgare; conditions: 21 DAA; 2,4-D or MCPA alone 250 g a.i./ha
Experimental: as §2, with “stage,” for “stage, except KCHSC, SASKR”, “each” for “STEME which were in the 4-8 leaf growth stage. Each”, “three times.” for “one time.”, “means of the three” for “from single”

winter wheat (TRZAW) [14] = assay: Test 23 growth chamber, postemergence; type: in vivo, Triticum aestivum; conditions: 21 DAA; 2,4-D or MCPA alone 250 g a.i./ha
Experimental: as §2, with “stage,” for “stage, except KCHSC, SASKR”, “each” for “STEME which were in the 4-8 leaf growth stage. Each”, “three times.” for “one time.”, “means of the three” for “from single”

redroot pigweed (AMARE) [15] = assay: Test 23 growth chamber, postemergence; type: in vivo, Amaranthus retroflexus; conditions: 21 DAA; 2,4-D or MCPA alone 250 g a.i./ha
Experimental: as §2, with “stage,” for “stage, except KCHSC, SASKR”, “each” for “STEME which were in the 4-8 leaf growth stage. Each”, “three times.” for “one time.”, “means of the three” for “from single”

[16] = test system: common lambsquarters (CHEAL); assay: Test 23 growth chamber, postemergence; type: in vivo, Chenopodium album; conditions: 21 DAA; 2,4-D or MCPA alone 250 g a.i./ha
Experimental: as §2, with “stage,” for “stage, except KCHSC, SASKR”, “each” for “STEME which were in the 4-8 leaf growth stage. Each”, “three times.” for “one time.”, “means of the three” for “from single”

galium (GALAP) [17] = assay: Test 23 growth chamber, postemergence; type: in vivo, Galium aparine; conditions: 21 DAA; 2,4-D or MCPA alone 250 g a.i./ha
Experimental: as §2, with “stage,” for “stage, except KCHSC, SASKR”, “each” for “STEME which were in the 4-8 leaf growth stage. Each”, “three times.” for “one time.”, “means of the three” for “from single”

kochia (KCHSC) [18] = assay: Test 23 growth chamber, postemergence; type: in vivo, Kochia scoparia; conditions: 21 DAA; 2,4-D or MCPA alone 250 g a.i./ha
Experimental: as §2, with “stage,” for “stage, except KCHSC, SASKR”, “each” for “STEME which were in the 4-8 leaf growth stage. Each”, “three times.” for “one time.”, “means of the three” for “from single”

wild chamomile (MATCH) = assay: Test 23 growth chamber, postemergence; type: in vivo, Matricaria chamomilla; conditions: 21 DAA; 2,4-D or MCPA alone 250 g a.i./ha
Experimental: as §2, with “stage,” for “stage, except KCHSC, SASKR”, “each” for “STEME which were in the 4-8 leaf growth stage. Each”, “three times.” for “one time.”, “means of the three” for “from single”

field poppy (PAPRH) = assay: Test 23 growth chamber, postemergence; type: in vivo, Papaver rhoeas; conditions: 21 DAA; 2,4-D or MCPA alone 250 g a.i./ha
Experimental: as §2, with “stage,” for “stage, except KCHSC, SASKR”, “each” for “STEME which were in the 4-8 leaf growth stage. Each”, “three times.” for “one time.”, “means of the three” for “from single”

wild buckwheat (POLCO) [19] = assay: Test 23 growth chamber, postemergence; type: in vivo, Polygonum convolvulus; conditions: 21 DAA; 2,4-D or MCPA alone 250 g a.i./ha
Experimental: as §2, with “stage,” for “stage, except KCHSC, SASKR”, “each” for “STEME which were in the 4-8 leaf growth stage. Each”, “three times.” for “one time.”, “means of the three” for “from single”

Russian thistle (SASKR) [20] = assay: Test 23 growth chamber, postemergence; type: in vivo, Salsola kali; conditions: 21 DAA; 2,4-D or MCPA alone 250 g a.i./ha
Experimental: as §2, with “stage,” for “stage, except KCHSC, SASKR”, “each” for “STEME which were in the 4-8 leaf growth stage. Each”, “three times.” for “one time.”, “means of the three” for “from single”

wild mustard (SINAR) [21] = assay: Test 23 growth chamber, postemergence; type: in vivo, Sinapis arvensis; conditions: 21 DAA; 2,4-D or MCPA alone 250 g a.i./ha
Experimental: as §2, with “stage,” for “stage, except KCHSC, SASKR”, “each” for “STEME which were in the 4-8 leaf growth stage. Each”, “three times.” for “one time.”, “means of the three” for “from single”

common chickweed (STEME) [22] = assay: Test 23 growth chamber, postemergence; type: in vivo, Stellaria media; conditions: 21 DAA; 2,4-D or MCPA alone 250 g a.i./ha
Experimental: as §2, with “stage,” for “stage, except KCHSC, SASKR”, “each” for “STEME which were in the 4-8 leaf growth stage. Each”, “three times.” for “one time.”, “means of the three” for “from single”

field violet (VIOAR) = assay: Test 23 growth chamber, postemergence; type: in vivo, Viola arvensis; conditions: 21 DAA; 2,4-D or MCPA alone 250 g a.i./ha
Experimental: as §2, with “stage,” for “stage, except KCHSC, SASKR”, “each” for “STEME which were in the 4-8 leaf growth stage. Each”, “three times.” for “one time.”, “means of the three” for “from single”

spring wheat (TRZAS) = assay: Test 4 field trial, postemergence; conditions: clodinafop 56 or fenoxaprop 90 g a.i./ha alone
Experimental: (§3) A field trial was conducted to evaluate the effects of mixtures of Compound 2 with commercial herbicides on spring wheat (TRZAS, Triticum aestivum L.) and several weed species. Wheat seeds (cv. ‘AC Intrepid’) were planted in late spring season, 3.8 cm deep in a loam soil having 2.7% organic matter and a pH of 7. Plots were 6 m long by 2.5 m wide. The field was managed using no-till practices. The plots were arranged in a randomized complete block design with each treatment being replicated four times. Treatments were applied postemergence 25 days after planting using a backpack sprayer delivering a spray volume of 55 L/ha using a pressure of 276 kPa. […] Compound 2 and clodinafop treatments, alone and in combination, also included a surfactant. Weed species present in the experimental plots in sufficient quantity to be evaluated included wild oat (AVEFA, Avena fatua L.), common lambsquarters (CHEAL, Chenopodium album L.), kochia (KCHSC, Kochia scoparia (L.) Schrad.), wild buckwheat (POLCO, Polygonum convolvulus L.), Russian thistle (SASKR, Salsola kali L. ssp. ruthenica (Iljin) Soo), and field pennycress (THLAR, Thlaspi arvense L.). […] Common lambsquarters was evaluated only at 14 days after application. […] Results are the means of the four replicates.

wild oat (AVEFA) = assay: Test 4 field trial, postemergence; type: in vivo, Avena fatua; parameters: scale not given here; conditions: clodinafop 56 or fenoxaprop 90 g a.i./ha alone
Experimental: as §3

[23] = test system: common lambsquarters (CHEAL); assay: Test 4 field trial, postemergence; type: in vivo, Chenopodium album; conditions: clodinafop 56 or fenoxaprop 90 g a.i./ha alone
kochia (KCHSC) [24] = assay: Test 4 field trial, postemergence; type: in vivo, Kochia scoparia; conditions: clodinafop 56 g a.i./ha alone
Experimental: as §3

wild buckwheat (POLCO) [25] = assay: Test 4 field trial, postemergence; type: in vivo, Polygonum convolvulus; conditions: clodinafop 56 or fenoxaprop 90 g a.i./ha alone
Experimental: as §3

Russian thistle (SASKR) [26] = assay: Test 4 field trial, postemergence; type: in vivo, Salsola kali; parameters: scale not given here; conditions: clodinafop 56 or fenoxaprop 90 g a.i./ha alone
Experimental: as §3

field pennycress (THLAR) = assay: Test 4 field trial, postemergence; type: in vivo, Thlaspi arvense; parameters: scale not given here; conditions: clodinafop 56 or fenoxaprop 90 g a.i./ha alone
Experimental: as §3

Cc1cc(Cl)ccc1OCC(=O)O [MCPA]
Postemergence HORVW Obs (winter barley (HORVW) [1]): 33 | Postemergence TRZAW Obs (winter wheat (TRZAW) [2]): 18 | Postemergence HORVW Obs (winter barley (HORVW) [3]): 25 | Postemergence TRZAW Obs (winter wheat (TRZAW) [4]): 10 | Postemergence AMARE Obs (redroot pigweed (AMARE) [5]): 65 | Postemergence CHEAL Obs [6]: 65 | Postemergence GALAP Obs (galium (GALAP) [7]): 50 | Postemergence KCHSC Obs (kochia (KCHSC) [8]): 55 | Postemergence POLCO Obs (wild buckwheat (POLCO) [9]): 40 | Postemergence SASKR Obs (Russian thistle (SASKR) [10]): 45 | Postemergence SINAR Obs (wild mustard (SINAR) [11]): 75 | Postemergence STEME Obs (common chickweed (STEME) [12]): 50 | Postemergence HORVW Obs (winter barley (HORVW) [13]): 35 | Postemergence TRZAW Obs (winter wheat (TRZAW) [14]): 32 | Postemergence AMARE Obs (redroot pigweed (AMARE) [15]): 63 | Postemergence CHEAL Obs [16]: 70 | Postemergence GALAP Obs (galium (GALAP) [17]): 43 | Postemergence KCHSC Obs (kochia (KCHSC) [18]): 67 | Postemergence MATCH Obs (wild chamomile (MATCH)): 53 | Postemergence PAPRH Obs (field poppy (PAPRH)): 57 | Postemergence POLCO Obs (wild buckwheat (POLCO) [19]): 52 | Postemergence SASKR Obs (Russian thistle (SASKR) [20]): 43 | Postemergence SINAR Obs (wild mustard (SINAR) [21]): 65 | Postemergence STEME Obs (common chickweed (STEME) [22]): 55 | Postemergence VIOAR Obs (field violet (VIOAR)): 60

C[C@@H](Oc1ccc(Oc2ncc(Cl)cc2F)cc1)C(=O)O [Clodinafop]
TRZAS Obs (spring wheat (TRZAS); 14 DAA): 0 | TRZAS Obs (spring wheat (TRZAS); 35 DAA): 0 | TRZAS Obs (spring wheat (TRZAS); 55 DAA): 0 | AVEFA Obs (wild oat (AVEFA); 14 DAA): 97 | AVEFA Obs (wild oat (AVEFA); 35 DAA): 99 | AVEFA Obs (wild oat (AVEFA); 55 DAA): 98 | CHEAL Obs ([23]; 14 DAA): 0 | CHEAL Obs ([23]; 35 DAA): 0 | KCHSC Obs (kochia (KCHSC) [24]; 14 DAA): 0 | KCHSC Obs (kochia (KCHSC) [24]; 35 DAA): 0 | POLCO Obs (wild buckwheat (POLCO) [25]; 14 DAA): 0 | POLCO Obs (wild buckwheat (POLCO) [25]; 35 DAA): 0 | SASKR Obs (Russian thistle (SASKR) [26]; 14 DAA): 0 | SASKR Obs (Russian thistle (SASKR) [26]; 35 DAA): 0 | THLAR Obs (field pennycress (THLAR); 14 DAA): 0 | THLAR Obs (field pennycress (THLAR); 35 DAA): 0

— patent US20100285959A1, “HERBICIDAL MIXTURES” (priority 2006, published 2010)
